Reference: patent US7041785B1, “B1-bradykinin receptor antagonists and use thereof” (Université de Sherbrooke, priority 1996, dated 2006)
Non-standard residues stand in square brackets, D forms with d. Residues, ends and D or L forms follow the SMILES beside them. Oic = O=C(O)[C@@H]1C[C@@H]2CCCC[C@@H]2N1; d2Nal = N[C@H](Cc1ccc2ccccc2c1)C(=O)O; Hyp = O=C(O)[C@@H]1C[C@@H](O)CN1; dTic = O=C(O)[C@H]1Cc2ccccc2CN1; 2Thi = N[C@@H](Cc1cccs1)C(=O)O

Assays:
human B1 receptor = target: T1, human B1 receptor (Homo sapiens, UniProt P46663); assay: cell-based; settings: Human umbilical vein B1 receptor pA2, vs desArg9BK, HOE140 400 nmol/L present
T1 sequence (P46663 1-353): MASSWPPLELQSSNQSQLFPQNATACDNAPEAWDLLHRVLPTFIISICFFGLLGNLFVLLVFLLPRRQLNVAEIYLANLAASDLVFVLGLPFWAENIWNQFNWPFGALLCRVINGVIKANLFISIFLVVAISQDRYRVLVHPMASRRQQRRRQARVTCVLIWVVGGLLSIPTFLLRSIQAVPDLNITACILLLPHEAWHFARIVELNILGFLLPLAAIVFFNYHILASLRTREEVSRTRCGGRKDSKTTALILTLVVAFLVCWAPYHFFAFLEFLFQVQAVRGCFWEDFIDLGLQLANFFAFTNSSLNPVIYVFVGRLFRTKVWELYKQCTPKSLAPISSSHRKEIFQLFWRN
Description: (§1) Tissues were taken from New Zealand white rabbits (1.5–2.5 kg) and Dunken Hartley guinea pigs (250–350 g) of either sex, killed by stunning and exsanguination. Umbilical cords were taken from healthy women 22–40 years old after spontaneous delivery at term. The rabbit jugular vein (RbJV), the guinea pig ileum (GPI), two preparations containing B2 receptors, the rabbit aorta (RbA) (B1 receptor) and the human umbilical vein (HUV), a mixed preparation containing both B1 and B2 receptors^10, were used. Helical strips of RbJV treated with 1 μmol/L of captopril to avoid peptide degradation by the angiotensin-converting enzyme (ACE), alias kininase II were prepared according to Gaudreau et al.^11 Helical strips of RbA devoid of endothelium were prepared according to Furchgott and Bhadrakom^12. Longitudinal segments of GPI were prepared with the procedure described by Rang^13. Helical strips of HUV were prepared according to Gobeil et al.^10. The tissues were suspended in 10-ml organ baths containing warm (37EC), oxygenated (95% O2–5% CO2) Krebs solution of the following composition in mmol/L; NaCl: 118.1; KCl: 4.7; CaCl26H2O: 2.5; KH2PO4: 1.2; MgSO47H2O: 1.18; NaHCO3: 25.0 and D-Glucose: 5.5. The RbA and the HUV were stretched with an initial tension of 2 g, whereas the RbJV and the GPI were loaded with 0.5 g. Changes of tension produced by the various agents were measured with Grass isometric transducers (model FT 03C, Grass Instrument Co., Quincy, Mass.). […] Before testing the drugs, the tissues were allowed to equilibrate for 60–120 min during which time the tissues were repeatedly washed and the tension readjusted every 15 min.
(§2) At the beginning of each experiment, a submaximal dose of bradykinin (BK) (9 nmol/L), was applied repeatedly on the RbJV, the GPI or the HUV to ensure that tissues responded with stable contractions. […] A similar protocol was used for the HUV.
(§3) Repeated applications of a singl and double concentration of BK (on RbJV, GPI and HUV) and of desArg^9BK (RbA and HUV) were made in the absence and in presence of the various peptides to evaluate their apparent affinities as antagonists, in terms of pA2 (-log10 of the molar concentration of antagonist that reduces the effect of a double concentration of agonist to that of a single one)^14. The antagonists were applied 10 min before measuring the myotropic effects of either BK (the B2 receptor agonist) or desArg^9BK (the B1 receptor agonist). […] All kinin antagonists were initially applied to tissues at concentration of 10 μg/mL to measure their potential agonistic activities (α^E) in comparison with BK (in the B2 receptor preparations) or desArg^9BK (in the B1 receptor preparations).

B1 receptor = target: T2, B1 receptor (Oryctolagus cuniculus, UniProt P48748); assay: cell-based; settings: Rb.A. pA2, apparent affinity as antagonist vs desArg9BK; antagonist applied 10 min before; Inactive = no detectable antagonistic effect at ≦ 10 μg/ml
T2 sequence (P48748 1-352): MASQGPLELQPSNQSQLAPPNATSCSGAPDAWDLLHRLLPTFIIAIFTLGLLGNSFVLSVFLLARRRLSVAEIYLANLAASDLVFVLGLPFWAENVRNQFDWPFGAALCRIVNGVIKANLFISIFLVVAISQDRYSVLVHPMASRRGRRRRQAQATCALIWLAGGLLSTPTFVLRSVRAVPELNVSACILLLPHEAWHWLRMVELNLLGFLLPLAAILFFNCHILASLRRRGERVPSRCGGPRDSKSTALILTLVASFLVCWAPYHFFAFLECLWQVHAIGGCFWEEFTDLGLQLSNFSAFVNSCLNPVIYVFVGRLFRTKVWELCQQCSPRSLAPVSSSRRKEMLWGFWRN
Description: as §1, §2, §3

B2 receptor [1] = target: T3, B2 receptor (Cavia porcellus, UniProt O70526); assay: cell-based; settings: for G.P.I. pA2: vs BK, Inactive = no detectable antagonistic effect at ≦ 10 μg/ml, F.ag. full agonist, P.ag. partial agonist
T3 sequence (O70526 1-372): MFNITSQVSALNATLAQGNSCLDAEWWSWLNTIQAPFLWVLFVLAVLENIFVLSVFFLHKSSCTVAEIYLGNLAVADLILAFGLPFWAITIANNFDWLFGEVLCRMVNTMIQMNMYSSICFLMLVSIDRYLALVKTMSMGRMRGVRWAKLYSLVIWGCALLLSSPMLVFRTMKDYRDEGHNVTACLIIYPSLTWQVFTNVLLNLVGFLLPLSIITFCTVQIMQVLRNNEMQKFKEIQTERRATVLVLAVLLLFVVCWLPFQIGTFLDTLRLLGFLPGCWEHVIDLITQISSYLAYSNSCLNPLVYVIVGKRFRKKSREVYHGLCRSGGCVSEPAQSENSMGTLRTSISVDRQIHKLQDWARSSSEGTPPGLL
Description: as §1, §2, §3

B2 receptor [2] = target: T4, B2 receptor (Oryctolagus cuniculus, UniProt Q28642); settings: vs BK; captopril 1 μmol/L; Inactive = no detectable antagonistic effect at ≦ 10 μg/ml
T4 sequence (Q28642 1-367): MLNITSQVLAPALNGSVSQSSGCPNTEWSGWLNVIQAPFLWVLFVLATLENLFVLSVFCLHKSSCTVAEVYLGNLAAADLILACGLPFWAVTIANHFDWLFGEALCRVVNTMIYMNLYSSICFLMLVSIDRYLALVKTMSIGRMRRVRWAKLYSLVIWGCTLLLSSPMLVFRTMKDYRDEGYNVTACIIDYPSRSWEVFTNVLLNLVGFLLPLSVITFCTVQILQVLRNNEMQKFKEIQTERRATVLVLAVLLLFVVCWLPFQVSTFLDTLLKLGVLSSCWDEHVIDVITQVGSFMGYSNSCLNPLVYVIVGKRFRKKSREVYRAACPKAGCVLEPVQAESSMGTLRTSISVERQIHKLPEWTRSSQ

[3] = tested on: T5, angiotensin-converting enzyme (ACE); assay: Metabolic degradation by purified angiotensin-converting enzyme, HPLC analysis; type: in vitro ADME, rabbit; settings: rabbit, isolated enzyme ace, pH 7.5
T5 construct: purified angiotensin-converting enzyme (ACE) from rabbit lungs; purchased Sigma, St-Louis, Mo; host or cells: purified from rabbit lungs
Method: The metabolic stability of various kinin-related peptides was evaluated by incubating the peptide in the presence of purified angiotensin-converting enzyme (ACE) from rabbit lungs (purchased from Sigma, St-Louis, Mo.) dissolved in phosphate buffered saline (PBS) (50 mmol/L, pH 7.5 containing 300 mmoL/L NaCl); the final concentration of enzyme was 45 μg/mL. The experimental protocol for the measurement of ACE activity has been described elsewhere^15,16. Briefly, 200 μmol/L of peptides (40 μL) were placed in a PBS buffer and incubated for 5 min at 37EC before adding 8.5 μL of ACE (total volume of the reaction medium; 190 μL). Samples were withdrawn at 30 min intervals, immersed in boiling water for 5 min, then cooled on ice and centrifuged (5 min) before proceeding to analysis of peptides by high pressure liquid chromatography (HPLC). Results of ACE metabolism are expressed in percent of kinin degradation following the incubation (30 min) of kinin substrates with the enzyme.
Pure peptides and metabolic products were analysed by reverse-phas HPLC on a C18 μBondapak column (4.6 mm×25 cm) (Waters) of 10-μm particle size. The peptides and their fragments were eluted at the rate of 2.0 mL/min. with a linear gradient ranging from 5 to 65% of acetonitrile/TFA 0.05%/water over 20 min. at room temperature. The elution positions of these peptides were determined by following the absorbance at 214 nm. For each assay, 50 μL of the reaction medium (treated or not with ACE) were extracted and injected into the column. Concentrations of the peaks products, different from the peaks of the peptide substrate, were estimated using a computer software program (Baseline 810; Waters) that controlled also all the chromatography operations. Isolated metabolites and substrates were collected and identified by Electrospray mass spectrometry (positive mode).

B2 receptor [4] = target: T4, B2 receptor; assay: cell-based
Description: as §1, §2, §3

Row | SMILES | Kb (human B1 receptor) [nM] | Kb (B1 receptor) [nM] | G.P.I. pA2 (B2 receptor [1]) | Rb.J.V. pA2 (B2 receptor [2]) | metabolised at 0.5 h, 42.1 μmol/L [3] [%] | Kb (B2 receptor [4]) [nM] | Kb (B2 receptor [1]) [nM] | metabolised at 0.5 h [3] [%]
1 | CC[C@H](C)[C@H](NC(=O)[C@@H](Cc1ccc2ccccc2c1)NC(=O)[C@H](CO)NC(=O)[C@H](Cc1ccccc1)NC(=O)CNC(=O)[C@@H]1CCCN1C(=O)[C@@H]1CCCN1C(=O)[C@H](CCCN=C(N)N)NC(=O)[C@H](CCCCN)NC(C)=O)C(=O)O [AcLys(D-βNal^7, Ile^8)desArg^9BK] (Ac-KRPPGFS[d2Nal]I-OH) | 3.24 | – | – | – | – | – | – | –
2 | CC(C)C[C@H](NC(=O)[C@@H]1CCCN1C(=O)[C@H](CO)NC(=O)[C@H](Cc1ccccc1)NC(=O)CNC(=O)[C@@H]1CCCN1C(=O)[C@@H]1CCCN1C(=O)[C@@H](N)CCCNC(=N)N)C(=O)O [Compound 1, (Leu^8)desArg^9BK, reference compound] | – | 57.5 | Inactive | Inactive | 83 ± 2 | – | – | –
3 | CC(C)C[C@H](NC(=O)[C@@H]1CCCN1C(=O)[C@H](CO)NC(=O)[C@H](Cc1ccccc1)NC(=O)CNC(=O)[C@@H]1CCCN1C(=O)[C@@H]1CCCN1C(=O)[C@H](CCCNC(=N)N)NC(=O)[C@@H](N)CCCCN)C(=O)O [Compound 2, Lys(Leu^8)desArg^9BK, reference compound] | – | – | Inactive | Inactive | 74 ± 2 | – | – | –
4 | N=C(N)NCCC[C@@H](N)C(=O)N[C@@H](CCCNC(=N)N)C(=O)N1CCC[C@H]1C(=O)N1C[C@H](O)C[C@H]1C(=O)NCC(=O)N[C@@H](Cc1ccccc1)C(=O)N[C@@H](CO)C(=O)N[C@H](Cc1ccccc1)C(=O)N[C@@H](Cc1ccccc1)C(=O)O [Compound 6, D-Arg(Hyp^3, D-Phe^7)desArg^9BK] (H-[dR]RP[Hyp]GFS[dF]F-OH; N-terminus and C-terminus assumed) | – | 363 | – | – | – | 2340 | > 8910 | –
5 | CC(C)C[C@H](NC(=O)[C@@H](Cc1ccccc1)NC(=O)[C@H](CO)NC(=O)[C@H](Cc1ccccc1)NC(=O)CNC(=O)[C@@H]1C[C@@H](O)CN1C(=O)[C@@H]1CCCN1C(=O)[C@H](CCCNC(=N)N)NC(=O)[C@H](N)CCCNC(=N)N)C(=O)O [Compound 7, D-Arg(Hyp^3, D-Phe^7, Leu^8)desArg^9BK] (H-[dR]RP[Hyp]GFS[dF]L-OH; N-terminus and C-terminus assumed) | – | 275 | Inactive | – | – | 2090 | – | –
6 | CC(C)C[C@H](NC(=O)[C@H]1Cc2ccccc2CN1C(=O)[C@H](CO)NC(=O)[C@H](Cc1ccccc1)NC(=O)CNC(=O)[C@@H]1CCCN1C(=O)[C@@H]1CCCN1C(=O)[C@H](CCCNC(=N)N)NC(=O)[C@@H](N)CCCCN)C(=O)O [Compound 10, Lys(D-Tic^7, Leu^8)desArg^9BK] (H-KRPPGFS[dTic]L-OH; N-terminus and C-terminus assumed) | – | 316 | – | – | – | > 6310 | – | –
7 | C[C@H](NC(=O)[C@H]1Cc2ccccc2CN1C(=O)[C@H](CO)NC(=O)[C@H](Cc1ccccc1)NC(=O)CNC(=O)[C@@H]1CCCN1C(=O)[C@@H]1CCCN1C(=O)[C@H](CCCNC(=N)N)NC(=O)[C@H](N)CCCNC(=N)N)C(=O)O [Compound 15, D-Arg(D-Tic^7, Ala^8)desArg^9BK] (H-[dR]RPPGFS[dTic]A-OH; N-terminus and C-terminus assumed) | – | > 9550 | – | Inactive | – | – | – | 21 ± 1
8 | N=C(N)NCCC[C@@H](N)C(=O)N[C@@H](CCCNC(=N)N)C(=O)N1CCC[C@H]1C(=O)N1C[C@H](O)C[C@H]1C(=O)NCC(=O)N[C@@H](Cc1ccccc1)C(=O)N[C@@H](CO)C(=O)N1Cc2ccccc2C[C@@H]1C(=O)N[C@@H](Cc1ccccc1)C(=O)O [Compound 16, D-Arg(Hyp^3, D-Tic^7)desArg^9BK] (H-[dR]RP[Hyp]GFS[dTic]F-OH; N-terminus and C-terminus assumed) | – | 186 | – | – | – | > 2190 | – | 0
9 | N=C(N)NCCC[C@H](N)C(=O)N1CCC[C@H]1C(=O)N1C[C@H](O)C[C@H]1C(=O)NCC(=O)N[C@@H](Cc1cccs1)C(=O)N[C@@H](CO)C(=O)N1Cc2ccccc2C[C@@H]1C(=O)N1[C@H](C(=O)O)C[C@@H]2CCCC[C@@H]21 [Compound 32, (Hyp^3, Thi^5, D-Tic^7, Oic^8)desArg^9BK, reference compound] (H-RP[Hyp]G[2Thi]S[dTic][Oic]-OH; N-terminus and C-terminus assumed) | – | 479 | – | – | – | 447 | > 7590 | 0
